Measurements reported in patent US5843886A, “Method of treating or preventing Type 1 diabetes by oral administration of insulin” (Autoimmune, Inc., priority 1995, dated 1998).
Values joined by “and” are separate entries in the source; they are usually repeats but may differ in a detail not shown here. Equal values may be shown once. “Also recorded” adds a separate entry of the source.

How the values were obtained:
Type in all cases: in vivo, mouse
NOD mice [1] = assay: Glucose post oral insulin in fasting 7 week NOD mice; conditions: for blood glucose after feeding: measured over 24 hours
Description: In order to determine whether any endocrinologic (i.e. direct lowering of blood sugar) effects occurred following the feeding of insulin, 7 week old NOD mice (5 mice per group) were fed 1 mg of porcine insulin or 1 mg of myelin basic protein (obtained from Pel Freez, Rogers, AR) as a control protein. Blood glucose was then measured over the next 24 hour period. As a positive control, a separate group of animals were injected subcutaneously with 20 micrograms of Porcine insulin. All animals were kept in the fasting state.

NOD mice [2] = assay: Spontaneous diabetes in NOD mice after oral feeding
From the text: NOD (non-obese diabetic mice) were obtained from Taconic Laboratories (Germantown, Mass.) at 4 weeks of age. There were a total of 30 animals in each of the groups mentioned below at the beginning of the experiment. At 41/2 weeks of age, animals were orally administered Porcine insulin (Novo Laboratories, Danbury, Conn.). Each animal received two treatments orally twice a week until 9 weeks of age. The mice were fed either saline (control) or 10 micrograms, 100 micrograms, or 1 milligram of Porcine insulin. The animals were fed (gavaged) with an 18 gauge ball-point needle (Popper and Sons, Inc., New Hyde Park, N.Y.). Beginning at 10 weeks the animals were then fed once a week for a total of 33 weeks. Beginning at 12 weeks the urine was tested weekly for the presence of glucose using Glucosuria test tape (Eli Lilly, Indianapolis, Ind.). If an animal tested 3+ or higher on the glucose urine test, a serum sample was taken and blood glucose measured using a glucose analyzer (Beckman). If the blood glucose was 220 or higher, the animals were classified as diabetic and then sacrificed. An identical experiment to Example 1 was performed in which NOD mice (14-17 per group) were fed one homogenized pancreas derived from Lewis rats in 0.5 mls PBS. […] Nonetheless, the effect is not as dramatic and complete as that seen in the animals fed insulin.

NOD mice [3] = assay: Insulitis in insulin-fed NOD mice (preliminary experiments, data not shown); conditions: fed 1 mg, compared with PBS-fed NOD mice
From the text: Therefore, oral administration of insulin to NOD mice appeared to be affecting the infiltration of immune system cells into the pancreas and thus halting disease progression by preserving beta cell function.

NOD mice [4] = assay: Aerosol administration of insulin on diabetes in NOD mice (Example 4); conditions: 0 to 1 mg in aerosol form by nebulizer
Description: Insulin (0 to 1 mg as in Examples 1 and 2) will be administered to NOD mice as described above in Examples 1 and 2 except in aerosol form by nebulizer.

NOD mice [5] = assay: Treatment of initial stages of diabetes in hyperglycemic NOD mice (Example 5); conditions: 0 to 1 mg, oral and aerosol, start at weeks 12-20 of age
Description: Insulin (0 to 1 mg as in Examples 1 and 2) will be administered to NOD mice which are suffering from hyperglycemia in an oral and aerosol form. The treatments will begin by weeks 12-20 of age, by which the serum glucose levels are at hyperglycemic concentrations in a certain percentage of animals prior to onset of diabetes.

[6] = fed 1 mg orally, fasting 7 week old mice
[7] = 20 micrograms injected subcutaneously, fasting 7 week old mice

| Substance | blood glucose after feeding (NOD mice [1]; [6]) | incidence of diabetes (NOD mice [2]; all oral doses tested (10 micrograms, 100 micrograms, 1 mg)) | development of diabetes (NOD mice [2]; fed 1 mg orally (gavage), twice a week until 9 weeks of age, then once a week, diabetic = blood glucose 220 or higher) | blood sugar on 10 representative animals (NOD mice [2]; fed 1 mg, individual non-diabetic animals) | development of diabetes (NOD mice [2]; fed 10 micrograms orally, same schedule) | blood sugar in animals which developed diabetes (NOD mice [2]; fed 10 micrograms, individual animals) | development of diabetes (NOD mice [2]; fed 100 micrograms orally, same schedule) | blood sugar in animals that became diabetic (NOD mice [2]; fed 100 micrograms, individual animals) | treated animals that failed to develop diabetes (NOD mice [2]; highest oral dose (1 mg)) | decrease in blood glucose level (NOD mice [1]; [7]) | period over which the glucose decrease persisted (NOD mice [1]; [7]) | endocrinologic (metabolic) effects (NOD mice [1]; fed 1 mg orally) | inflammatory immune system cells surrounding the pancreas (insulitis) (NOD mice [3]) | prevention of the manifestation of symptoms (hyperglycemia) of Type 1 diabetes (NOD mice [4]) | beta cell function (NOD mice [5]) | serum glucose concentrations (NOD mice [5]) |
| --- | --- | --- | --- | --- | --- | --- | --- | --- | --- | --- | --- | --- | --- | --- | --- | --- |
| myelin basic protein | no drop in the blood glucose | – | – | – | – | – | – | – | – | – | – | – | – | – | – | – |
| Porcine insulin | no drop in the blood glucose | lower incidence of diabetes; also recorded: reduced the numbers of these mice which subsequently went on to develop diabetes | none of the mice went on to develop diabetes; also recorded: no diabetes developed; also recorded: None of the animals developed diabetes | 130 mg/dL | diabetes developed | 330 mg/dL and 420 mg/dL and 520 mg/dL | diabetes developed | 500 mg/dL and 290 mg/dL and 600 mg/dL and 450 mg/dL | 100% | approximately 80 mg % | 4 h | no endocrinologic (metabolic) effects | fewer inflammatory immune system cells surrounding the pancreas | effective in preventing the manifestation of symptoms | preservation of beta cell function | reduction in serum glucose concentrations to near normal levels |
